Source: patent US9340577B2, “HLA binding motifs and peptides and their uses” (priority 1992, dated 2016)
pIC50: −log10 of the molar value. Read-outs that look alike come from different tables or passages of the source. No end group written: not given here.

Legend:
B*5301 = B*5301 (Homo sapiens, UniProt P01889, A329T/A93T/A95T/C349S/D201E/D98Y/E176V/E187L/E204Q/E69T/G107R/I218V/K202T/L105A/L119I/N104I/Q94N/R106L/R155S/R180L/S101N/S121R/S35A/S48A/T118I/V127L/V306I/V36M/Y140S/Y91F); assay: biochemical; details: for IC50: B*5301 (nM)
[1] = tested on: peptide-coated Jurkat A2/Kb target cells; set-up: species or system mice; details: mouse, in vivo
HLA-A1 (A*0101) = HLA-A1 (A*0101) (Homo sapiens, UniProt P04439, A114D/A174V/A182V/D101N/D185E/E176A/E190D/L180R/Q94H/R68K/S129P/T187R/V100A/V91M/W191G); assay: biochemical; type: binding
A*2902 = A*2902 (Homo sapiens, UniProt P04439, A270S/D101N/D185E/E176V/E277Q/E87Q/F33T/G231S/H175R/I121M/I218V/I322F/K168Q/L300P/L318F/M331R/P208A/P217A/Q86L/T323A/T345S/V100A/V358M); assay: biochemical; type: binding
A*3002 = A*3002 (Homo sapiens, UniProt P04439, D101N/D140H/D185E/E176R/F33S/G80R/H175R/K168Q/Q94H/R138E/R41S/V100E); assay: biochemical; type: binding
A*2601 = A*2601 (Homo sapiens, UniProt P04439, A114D/A173T/A270S/D101N/D185E/E277Q/E87N/F33Y/G231S/I121R/I218V/K168Q/L180W/L300P/L318F/P208A/P217A/Q86R/Q94H/R138Q/S129P/T187R/T323A/T345S/V100A/V358M); assay: biochemical; type: binding
B*0701 = B*0701 (Homo sapiens, UniProt P01889); assay: biochemical; details: for IC50: B*0701 (nM), Binding of peptides to B7-like supermotif alleles, Table 36
HLA-A*0201 (HLA-A2.1) = HLA-A*0201 (HLA-A2.1) (Homo sapiens, UniProt P04439, D140Y/D185E/D98H/E176V/E277Q/G131W/G231S/I119V/I121R/I166T/I218V/L300P/L318F/N151K/N90K/P208A/P217A/Q86G/Q94H/R138H/R169H/T345S); assay: biochemical; type: binding
HLA-A24 = type: binding, human
B*0702 (B*0701) = B*0702 (B*0701) (Homo sapiens, UniProt P01889); assay: biochemical; type: binding; details: Table 25; given as whole numbers, no unit
B*5401 = B*5401 (Homo sapiens, UniProt P01889, A329T/C349S/D138N/D201E/E176V/E187T/E204Q/E69G/I76V/K202T/L119W/R155S/R180L/S121T/S35A/S48A/V127L/V306I/V36M/Y140L); assay: biochemical

With TPVNSQLGNI [15.246] the pIC50 (B*5301) was 4.77.
For TIHDIILECV, the “CTL response in HLA-A2.1 transgenic mice” value [1] was “most immunogenic”.
With GTDPACYEF [Peptide 9012.0135] the pIC50 (HLA-A1 (A*0101)) was 6.33, the pIC50 (A*2902) was 5.71 and the pIC50 (A*3002) was 5.01.
Molecule YTMAGVGSPY [Peptide 9012.0153] has a pIC50 (HLA-A1 (A*0101)) of 8.01, a pIC50 (A*2601) of 9.49 and a pIC50 (A*2902) of 8.66. The pIC50 (A*3002) was 8.46.
With GTDCTTIHYNY [Peptide 9012.0200] the pIC50 (HLA-A1 (A*0101)) was 7.54, the pIC50 (A*2601) was 5.31 and the pIC50 (A*2902) was 6.02. For the same molecule, the pIC50 (A*3002) was 7.12.
Work on GTSSFSTTINY [Peptide 9012.0190] yielded a pIC50 (HLA-A1 (A*0101)) of 5.38, a pIC50 (A*2601) of 5.83 and a pIC50 (A*3002) of 7.07.
For `CC[C@H](C)[C@H](NC(=O)[C@H](Cc1ccc(O)cc1)NC(=O)[C@H](CC(C)C)NC(=O)[C@H](Cc1c[nH]cn1)NC(=O)CNC(=O)[C@@H](NC(=O)[C@@H]1CCCN1C(=O)[C@@H](N)CC(=O)O)[C@@H](C)CC)C(=O)N[C@@H](Cc1ccccc1)C(=O)O` [15.138], the IC50 (B*5301) was 2550 nM.
For LLMGTLGIV, the “CTL response in HLA-A2.1 transgenic mice” value [1] was “most immunogenic”.
LTQENYLEY [Peptide 9012.0133] was tested, and the pIC50 (HLA-A1 (A*0101)) was 7.80, the pIC50 (A*2601) was 7.52 and the pIC50 (A*2902) was 7.66. It also gave a pIC50 (A*3002) of 7.64.
STVPSQKTY [Peptide 9012.0140] was tested, and the pIC50 (HLA-A1 (A*0101)) was < 4.70, the pIC50 (A*2601) was 6.38 and the pIC50 (A*2902) was < 4.70.
CTDIHYNY [Peptide 9012.0114] was tested, and the pIC50 (HLA-A1 (A*0101)) was 7.17, the pIC50 (A*2601) was 5.66 and the pIC50 (A*2902) was 5.59.
SSDPSQKTY [Peptide 9012.0139] was tested, and the pIC50 (HLA-A1 (A*0101)) was 7.43, the pIC50 (A*2601) was < 4.70 and the pIC50 (A*2902) was 5.01.
In the case of YMLDLQPETT, the “CTL response in HLA-A2.1 transgenic mice” value [1] was “most immunogenic”.
PTDDPSPLQRY [Peptide 9012.0186] was tested, and the pIC50 (HLA-A1 (A*0101)) was 7.49, the pIC50 (A*2601) was < 4.70 and the pIC50 (A*2902) was 6.03. The pIC50 (A*3002) was 6.36.
With WPLYGNEGL [15.041] the IC50 (B*0701) was 859 nM and the IC50 (B*5301) was 6890 nM.
LTHFLLLKY [Peptide 9012.0134] showed a pIC50 (HLA-A1 (A*0101)) of 7.49, a pIC50 (A*2601) of 6.43 and a pIC50 (A*2902) of 8.89. The pIC50 (A*3002) was 8.49.
With VTGPGPGY [Peptide 83.0098] the pIC50 (HLA-A1 (A*0101)) was 5.73, the pIC50 (A*2902) was 5.72 and the pIC50 (A*3002) was 6.52.
In the case of SSDSTTINY [Peptide 9012.0130], the pIC50 (HLA-A1 (A*0101)) was 8.07 and the pIC50 (A*3002) was 6.05.
SPLLLSTTEQ [15.226] gave a pIC50 (B*0701) of 4.67 and a pIC50 (B*5301) of 7.26.
Work on `CC[C@H](C)[C@H](NC(=O)[C@@H]1CCCN1C(=O)[C@H](CC(=O)O)NC(=O)[C@@H](NC(=O)[C@H](CCC(=O)O)NC(=O)[C@@H](N)CCSC)C(C)C)C(=O)NCC(=O)N[C@@H](Cc1c[nH]cn1)C(=O)N[C@@H](CC(C)C)C(=O)N[C@@H](Cc1ccc(O)cc1)C(=O)O` [Peptide 1461.06] yielded a pIC50 (HLA-A1 (A*0101)) of 6.43, a pIC50 (A*2601) of 7.82 and a pIC50 (A*2902) of 6.51. It also gave a pIC50 (A*3002) of 7.46.
CILESCFRAVI was tested, and the “binding to HLA-A2.1 (column 3; no allele head shown for these rows)” value (HLA-A*0201 (HLA-A2.1)) was 0.0017, the “binding to HLA-A24 (column 6; no allele head shown for these rows)” value (HLA-A24) was 0.0008 and the “B*0701 binding” value (B*0702 (B*0701)) was 0.
For `CSCC[C@H](NC(=O)[C@H](CC(C)C)NC(=O)[C@H](C)NC(=O)[C@@H]1CCCN1C(=O)[C@@H](N)Cc1ccc(O)cc1)C(=O)N1CCC[C@H]1C(=O)N[C@@H](CC(C)C)C(=O)N[C@@H](Cc1ccc(O)cc1)C(=O)N[C@@H](C)C(=O)O` [16.008], the IC50 (B*0701) was 524 nM, the IC50 (B*5301) was 2580 nM and the pIC50 (B*5401) was 9.10.
EPIVGAETF [15.091] was tested, and the IC50 (B*5301) was 4770 nM.
